This passage reports EC50 and Ki results from patent publication US20240391930A1, “SPIROCYCLIC BICYCLIC MODULATORS OF CHOLESTEROL BIOSYNTHESIS AND THEIR USE FOR PROMOTING REMYELINATION” (GENENTECH, INC., priority 2021, published 2024).

The test system of assay [1] is zymostenol accumulation in EpiSC-derived OPCs (EBP). Nature of the assay: GC/MS-based sterol profiling (zymostenol accumulation). As to conditions: Mus musculus, 24 hours, 8 doses from 0.15 nM to 333 nM, read-out: Zymostenol GCMS EC50. The assay is classed as cell-based. As for the experimental part: (§1) To assess effects of treatments on OPCs, all treatments were assayed in two or more independent platings of epiblast stem cell-derived OPCs (EpiSC). EpiSC-derived OPCs were obtained using in vitro differentiation protocols and culture conditions described previously (Najm et al, 2011, Nature Methods). OPCs were expanded and frozen down in aliquots. OPCs were thawed into growth conditions for at least one passage before use in further assays.
Sterols were monitored using a modified Folch wash protocol (Hubler et al, 2018, Nature). EpiSC-derived OPCs were plated at 100,000 cells per well in PO- and laminin-coated 96-well plates in N2B27 media without growth factors. After 24 hours, cells were rinsed with saline and plates were frozen. Cholesterol-d7 standard was then added to each well before drying under nitrogen stream and derivatization with 55 μl of bis(trimethylsilyl) trifluoroacetamide. After derivatization, 2 μl were analyzed by gas chromatography/mass spectrometry using an Agilent 5973 Network Mass Selective Detector equipped with a 6890 gas chromatograph system and a HP-5MS capillary column (30 m×0.25 mm×[…]). Samples were analyzed in full scan mode using electron impact ionization; ion fragment peaks were integrated to calculate sterol abundance, and quantitation was relative to cholesterol-d7. The following ion fragments were used to quantitate each metabolite: cholesterol-d7 (465), FF-Mas (482), cholesterol (368), zymostenol (458), zymosterol (456), Desmosterol (456, 343), 7-dehydrocholesterol (456, 325), lanosterol (393), lathosterol (458), 14-dehydrozymostenol (456, 351). […] All standards were obtained from Avanti Polar Lipids unless otherwise indicated. Calibration curves were generated by injecting varying concentrations of sterol standards and maintaining a fixed amount of cholesterol-D7. For normalized zymostenol accumulation results, the total amount of zymostenol measured after drug treatment was divided by the total amount of zymostenol accumulated after 24 hr treatment with 100 nM positive control reference.

Assay [2] concerns the target T1, human emopamil binding protein and human 7-dehydrocholesterol reductase (hEBP-DHCR7) (Homo sapiens, UniProt Q15125).
T1 construct: expressed in transfected cells; host or cells: HEK 293 cells, transient transfection with 2 DNA constructs
The experiment in a line: hEBP-DHCR7 radioligand filtration binding assay. To be noted: membranes of HEK293 co-expressing hEBP and DHCR7; [3H] 2-thia-6-azaspiro[3.4]octane radioligand; 8 doses 0.06 to 5000 nM. The method, then:
Membrane Preparation: human emopamil binding protein and human 7-dehydrocholesterol reductase co-expressing cells were generated by transient transfecting host human embryonic kidney (HEK) 293 cells with 2 DNA constructs containing each protein's coding sequence. Cells were suspension cultured at 37° C. with 5% CO2 in […] 293 Expression Medium (Thermofisher). Whole cell membrane was prepared by harvesting the cell pellet, adding cold membrane buffer (50 mM Tris, pH7.5, lx Roche COMPLETE EDTA-free protease inhibitor cocktail) 10 times volume of the cell pellets weight, lysing cell pellet on ice by using Dounce homogenizer, spinning at 200 g 4° C. for 15 min, collecting supernatant and spinning again at 25000 g 4° C. for 50 min, transferring pellet to Dounce homogenizer, re-suspending pellet by homogenizing in membrane buffer on ice to reach ˜25 mg/mL, then keeping whole cell membrane aliquots at −80° C.
Compounds were prepared in a 96-well U bottom plate using an Echo550 machine and 10 mM compound DMSO stock solution, followed by an 8-dose 5-fold serial dilutions protocol with final testing compound concentration ranging from 0.06 to 5000 nM, with DMSO back fill to 100 nL/well and n=2. […] The UniFilter-96 GF/B plates were pre-treated by adding 50 µl/well of 0.3% (v/v) PEI to UniFilter-96 GF/B plates. The plates were sealed and incubated at 4° C. for 3 hrs. Then, the plates were washed with ice-cold assay buffer 3 times. The radioligand binding assay was prepared by adding assay buffer diluted hEBP-DHCR7 membrane at 66.7 μg/ml×150 l/well into the 96-well compound plate to reach 10 μg membrane per well. Then, the assay buffer diluted [3H]—((S)-6-(2-Methyl-3-(6-(trifluoromethyl)pyridin-3-yl)propyl)-2-thia-6-azaspiro[3.4]octane 2,2-dioxide or (R)-6-(2-Methyl-3-(6-(trifluoromethyl)pyridin-3-yl)propyl)-2-thia-6-azaspiro[3.4]octane 2,2-dioxide) was added at 25 nM×50 l/well. Following this, the plate was centrifuged at 1000 rpm for 30 secs. The plate was then sealed and agitated at 600 rpm at 22° C. for 5 min, and then incubated at 22° C. for 3 hrs. The incubation was stopped by transferring the binding solution to the pre-treated UniFilter-96 GF/B plate, vacuum filtrated, and then washed four times with ice-cold assay buffer. Following this, the plates were dried at 37° C. for 45 min. The plates were then sealed at the bottom. 40 µl/well of scintillation cocktail was added to the plates. A MicroBeta2 microplate counter was then used to read the plate and analyze the data. For reference and test compounds, the results are expressed as % Inhibition, using the normalization equation: N=100−100×(U−C2)/(C1−C2), where U is the unknown value, C1 is the average of high controls, and C2 is the average value of low controls. The IC50 was determined by fitting percentage of inhibition as a function of compound concentrations with Hill equation using XLfit. Results are expressed as hEBP-DHCR7 Ki (uM) in Table 4. Ki was calculated as described above; * indicates isolated isomer or isomers, but that the stereochemistry has not been assigned.

The test system of another assay is EpiSC-derived OPCs. The experiment in a line: In vitro phenotypic screening of OPCs (MBP high-content imaging). The assay is classed as cell-based. As to conditions: Mus musculus, 72 h; percentage of MBP-positive oligodendrocytes, 3 days, 0.5 nM to 1000 nM; read-out: OPC EC50. As for the experimental part:
as §1
EpiSC-derived OPCs were grown and expanded in poly-L-ornithine (PO) and laminin-coated flasks in N2B27 media (DMEM/F12 (Gibco), N2-MAX (R&D Systems), B-27 (ThermoFisher), and GlutaMax (Gibco)) supplemented with FGF2 ([…], R&D systems, 233-FB-025) and PDGF-AA ([…], R&D systems, 233-AA-050) before harvesting for experiments. The cells were seeded onto poly-L-ornithine or poly-D-lysine coated CellCarrier Ultra plates (PerkinElmer) coated with laminin (Sigma, L2020) at a density of 150,000/cm^2 in N2B27 media without growth factors. For dose-response testing, a 1000× compound stock in dimethyl sulphoxide (DMSO) was added to assay plates, resulting in 8-point dose curves with final concentrations between 1000 nM and 0.5 nM. Positive controls and DMSO vehicle controls were included in each assay plate. Cells were incubated under standard conditions (37° C., 5% CO2) for 3 days and fixed with 4% paraformaldehyde (PFA) in phosphate buffered saline (PBS) for 20 min. Fixed plates were washed with PBS, permeabilized with 0.1% Triton X-100, and blocked with 10% donkey serum (v/v) in PBS for 40 min. Then, cells were labelled with MBP antibodies (Abcam, ab7349; 1:200) for 2 h at room temperature, washed with PBS, and stained with Alexa Fluor conjugated secondary antibodies (1:500) for 45 min. Nuclei were visualized by DAPI staining (Sigma; 1 μg/ml), followed by further PBS washes.
Cells and cell culture plates were imaged on the Operetta High Content Imaging and Analysis system (PerkinElmer). Analysis (PerkinElmer Harmony and Columbus software) began by identifying intact nuclei stained by DAPI. The peri-nuclear region of each cell was then cross-referenced with the […] (MBP) stain to identify oligodendrocyte nuclei, and from this the percentage of oligodendrocytes was calculated.

Structures are written as SMILES.

T1 sequence (Q15125 whole entry): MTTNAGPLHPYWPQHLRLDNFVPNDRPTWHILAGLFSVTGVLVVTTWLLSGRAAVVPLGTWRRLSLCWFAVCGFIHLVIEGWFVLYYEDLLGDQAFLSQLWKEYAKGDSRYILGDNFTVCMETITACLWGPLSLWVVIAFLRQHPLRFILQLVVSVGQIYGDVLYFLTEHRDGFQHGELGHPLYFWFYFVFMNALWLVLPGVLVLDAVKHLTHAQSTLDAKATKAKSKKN

By EC50 is commonly meant the concentration at which the effect is half-maximal. The Ki is a measure of affinity in units of concentration, obtained from inhibition or displacement. A lower Ki goes with higher affinity. As for `CC(C)n1nc(-c2ccc(C(F)(F)F)nc2)cc1[C@H]1[C@@H]2C[C@H](N3CCC4(C3)CS(=O)(=O)C4)C[C@@H]21` (single isomer, unassigned) [Compound 14], the results for the EC50 (in assay [1]; in the assay with EpiSC-derived OPCs) were 2 nM and 2.9 nM, respectively. The affinity in assay [2] corresponds to a Ki of 13 nM.
On the same counts, the results for `CC(C)n1nc(C(F)(F)F)cc1[C@H]1[C@@H]2C[C@@H](N3CCC4(CC3)CS(=O)(=O)C4)C[C@@H]21` (single isomer, unassigned) [Compound 43*] are 11 nM, 48 nM and 50.3 nM.
Regarding `CC(C)n1nc(C(F)(F)F)cc1[C@H]1[C@@H]2C[C@H](N3CCC4(CC3)CS(=O)(=O)C4)C[C@@H]21` (single isomer, unassigned) [Compound 44*], the results for the EC50 (in assay [1]; in the assay on EpiSC-derived OPCs) were 6.8 nM and 14 nM, respectively. For the same compound, the affinity in assay [2] corresponds to a Ki of 27 nM.
On the same counts, the results for `CC(C)n1nc(-c2cncc(OC(F)F)c2)cc1[C@H]1[C@@H]2C[C@@H](N3CCC4(CC3)CS(=O)(=O)C4)C[C@@H]21` (single isomer, unassigned) [Compound 45*] are 8.1 nM, 14 nM and 131 nM.
Turning to `CC(C)n1nc(-c2cncc(OC(F)F)c2)cc1[C@H]1[C@@H]2C[C@H](N3CCC4(CC3)CS(=O)(=O)C4)C[C@@H]21` (single isomer, unassigned) [Compound 46*], the EC50 was found to be 24 nM in assay [1] and 44 nM in the assay with EpiSC-derived OPCs. The compound further registered a Ki in assay [2] of 34.6 nM.
For the compound `CCn1nc(-c2cncc(C(F)(F)F)c2)cc1[C@H]1[C@@H]2C[C@@H](N3CCC4(CC3)CS(=O)(=O)C4)C[C@@H]21` (single isomer, unassigned) [Compound 53*], the EC50 turned out to be 6.8 nM in assay [1] and 33 nM in the assay on EpiSC-derived OPCs. The compound further showed a Ki in assay [2] of 97.3 nM.
Taken in the same sequence, the figures for `CCn1nc(-c2cncc(C(F)(F)F)c2)cc1[C@H]1[C@@H]2C[C@H](N3CCC4(CC3)CS(=O)(=O)C4)C[C@@H]21` (single isomer, unassigned) [Compound 54*] were 9.1 nM, 31 nM and 32.8 nM.
Taken in the same sequence, the figures for `CC(C)(C)n1nc(C(F)(F)F)cc1[C@H]1[C@@H]2C[C@@H](N3CCC4(C3)CS(=O)(=O)C4)C[C@@H]21` (single isomer, unassigned) [Compound 57] were 3.5 nM, 18 nM and 26 nM.
On the same counts, the results for `CC(C)(C)n1nc(C(F)(F)F)cc1[C@H]1[C@@H]2C[C@H](N3CCC4(C3)CS(=O)(=O)C4)C[C@@H]21` (single isomer, unassigned) [Compound 58] are 3.3 nM, 19 nM and 12 nM.
For the compound `O=S1(=O)CC2(CCN([C@@H]3C[C@@H]4[C@H](C3)[C@H]4c3cc(C(F)(F)F)nn3CC(F)F)CC2)C1` (single isomer, unassigned) [Compound 62*], the concentration giving a half-maximal response (EC50) in assay [1] came out at 12 nM; in the assay on EpiSC-derived OPCs it was 60 nM. The compound also returned a Ki in assay [2] of 134 nM.
Taken in the same sequence, the figures for `O=S1(=O)CC2(CCN([C@H]3C[C@@H]4[C@H](C3)[C@H]4c3cc(C(F)(F)F)nn3CC(F)F)CC2)C1` (single isomer, unassigned) [Compound 63*] were 19 nM, 130 nM and 65.2 nM.
As to `CCn1nc(-c2cccnc2)cc1[C@H]1[C@@H]2C[C@H](N3CCC4(C3)CS(=O)(=O)C4)C[C@@H]21` (single isomer, unassigned) [Compound 65*], the EC50 in assay [1] stood at 18 nM; with EpiSC-derived OPCs it was 65 nM. The compound further had an inhibition constant Ki in assay [2] of 51.9 nM.
In the case of `CCn1nc(-c2cncc(F)c2)cc1[C@H]1[C@@H]2C[C@@H](N3CCC4(C3)CS(=O)(=O)C4)C[C@@H]21` (single isomer, unassigned) [Compound 68*], the values for the half-maximal effective concentration (EC50) (in assay [1]; in the assay with EpiSC-derived OPCs) were 14 nM and 60 nM, respectively. Moreover, the Ki in assay [2] was 86.2 nM.
On the same counts, the results for `CCn1nc(-c2cncc(F)c2)cc1[C@H]1[C@@H]2C[C@H](N3CCC4(C3)CS(=O)(=O)C4)C[C@@H]21` (single isomer, unassigned) [Compound 69*] are 4.4 nM, 27 nM and 34.3 nM.
On to `CC(C)(C)n1nc(-c2cccc(C(F)(F)F)c2)nc1[C@H]1[C@@H]2C[C@@H](N3CCC4(C3)CS(=O)(=O)C4)C[C@@H]21` (single isomer, unassigned) [Compound 75], for which the EC50 in assay [1] amounted to 2.2 nM; with EpiSC-derived OPCs it was 6.2 nM. For the same compound, the Ki in assay [2] was found to be 14.9 nM.
On the same counts, the results for `O=S1(=O)CC2(CCN([C@@H]3C[C@@H]4[C@H](C3)[C@H]4c3cc(C(F)(F)F)nn3CC(F)F)C2)C1` (single isomer, unassigned) [Compound 90*] are 21 nM, 190 nM and 70.5 nM.
Taken in the same sequence, the figures for `CC(C)n1nc(-c2cnc(C(F)(F)F)nc2)cc1[C@H]1[C@@H]2C[C@@H](N3CCC4(C3)CS(=O)(=O)C4)C[C@@H]21` (single isomer, unassigned) [Compound 102] were 14 nM, 64.6 nM and 42.5 nM.
